Assay results published in paper PMC8373216, “Development and Preclinical Evaluation of New Inhaled Lipoglycopeptides for the Treatment of Persistent Pulmonary Methicillin-Resistant Staphylococcus aureus Infections” (Antimicrobial Agents and Chemotherapy, 2021).
≈ marks a conversion by molar mass, not a printed value. Read-outs that look alike come from different tables or passages of the source.

Tests used:
Streptococcus mitis = test: Expanded panel broth microdilution MIC/MBC; assay type: cell-based; conditions: for MIC: Streptococcus mitis
[1] = test system: Staphylococcus lugdunensis; test: Expanded panel broth microdilution MIC; assay type: cell-based
[2] = Single-dose nebulized nose-only inhalation PK in healthy rats; assay type: in vivo, rat
Protocol: Rats were acclimated in the study facility for approximately 1 week prior to study start. Ten or eleven rats per cohort were loaded into the chamber at the time of dosing. […] An additional airflow set to 6 liters/min was admixed with the nebulizer output to further direct the test articles to the animals. […] The remaining port on the chamber was fit with an aerosol sampling filter for dose determination over a 5 min sampling period. The average dose delivered to the nose of each animal was calculated using an algorithm that was previously described ([49]). […] Animals were euthanized for collection of whole lungs and plasma at time points ranging from immediate postdose (IPD; approximately 30 min after dosing for nebulization) to 168 h postdose (7 days). Drugs were extracted from tissues using customized protein precipitation methods with an appropriate internal standard for each compound and transferred for analysis by LC-MS/MS (Sciex API4500 or API6500+ mass spectrometer [Sciex, Framingham, MA]). GraphPad Prism (La Jolla, CA) was used for statistical analyses and data plotting. […] The data were applied to a noncompartmental analysis after extravascular dosing input and fit to a linear up/log down model. Statistical analysis of in vitro intracellular and biofilm activity was based on a two-way ANOVA with a Bonferroni post test. In vivo statistical analysis was based on the Kolmogorov-Smirnov test.

Staphylococcus hominis = test: Expanded panel broth microdilution MIC; assay type: cell-based
Streptococcus pyogenes = test: Expanded panel broth microdilution MIC/MBC; assay type: cell-based
Enterococcus faecalis = test: Expanded panel broth microdilution MIC/MBC; assay type: cell-based
MSSA ATCC 29213 = test: In-house broth microdilution MIC screening; assay type: cell-based; conditions: Staphylococcus aureus, read-out: MIC Value, MSSA ATCC 29213
Streptococcus pneumoniae = test: Expanded panel broth microdilution MIC/MBC; assay type: cell-based
Clostridioides difficile = test: Expanded panel broth microdilution MIC; assay type: cell-based
[3] = test system: Staphylococcus haemolyticus; test: Expanded panel broth microdilution MIC; assay type: cell-based
[4] = single nebulized nose-only inhaled dose, healthy rats

**Q.** What does the source list for `CCCCCCCCCCNCCN[C@@]1(C)C[C@H](O[C@H]2[C@H](Oc3c4cc5cc3Oc3ccc(cc3Cl)[C@@H](O)[C@@H](NC(=O)[C@@H](CC(C)C)NC)C(=O)N[C@@H](CC(N)=O)C(=O)N[C@H]5C(=O)N[C@H]3C(=O)N[C@H](C(=O)N[C@H](C(=O)O)c5cc(O)c(CNCP(=O)(O)O)c(O)c5-c5cc3ccc5O)[C@H](O)c3ccc(c(Cl)c3)O4)O[C@H](CO)[C@@H](O)[C@@H]2O)O[C@@H](C)[C@H]1O` [Telavancin, telavancin]?
**A.** MIC:MBC (Streptococcus mitis; S. mitis MGS, MBC on one organism): 1; MIC (Streptococcus mitis): 0.03 mg/L (≈ 0.0171 µM); MIC (Streptococcus mitis; ATCC49456): 0.06 mg/L (≈ 0.0342 µM); MIC (Streptococcus mitis; read-out: MIC (median)): 0.05 mg/L (≈ 0.0285 µM); MIC ([1]; S. lugdunensis, 1 isolate): 0.06 mg/L (≈ 0.0342 µM); MIC ([1]; Staphylococcus lugdunensis): 0.06 mg/L (≈ 0.0342 µM); half-life ([2]; male, Sprague Dawley, rat, in vivo, inhaled or intranasal, single nebulized nose-only inhaled dose, healthy rats, noncompartmental analysis, read-out: Lung t1/2 (converted)): 21.1 days; Drug lung level at 120 h ([2]; relative to IPD level, rat lung): 81%; Lung AUC0-∞ [2, 4]: 3877 µg·h/g; Lung Cmax [2, 4]: 12 µg/g; Plasma Cmax [2, 4]: BLQ; MIC (Staphylococcus hominis): 0.06 mg/L (≈ 0.0342 µM); MIC (Staphylococcus hominis; ATCC27844): 0.06 mg/L (≈ 0.0342 µM); MIC (Streptococcus pyogenes; S. pyogenes MMX 946, ermR): 0.06 mg/L (≈ 0.0342 µM); MIC:MBC (Streptococcus pyogenes; S. pyogenes ermR): 1; MIC (Streptococcus pyogenes; S. pyogenes ermR, 1 isolate): 0.06 mg/L (≈ 0.0342 µM); MIC (Streptococcus pyogenes; Streptococcus pyogenes): 0.06 mg/L (≈ 0.0342 µM); MIC (Streptococcus pyogenes; Streptococcus pyogenes, ATCC19615): 0.06 mg/L (≈ 0.0342 µM); MIC (Streptococcus pyogenes; Streptococcus pyogenes, read-out: MIC (median)): 0.06 mg/L (≈ 0.0342 µM); MIC:MBC (Enterococcus faecalis; E. faecalis VSE, MBC on one organism): >8; MIC:MBC (Enterococcus faecalis; E. faecalis VanA VRE): 8; MIC (Enterococcus faecalis; E. faecalis VanA VRE, 1 isolate): 1 mg/L (≈ 0.57 µM); MIC (Enterococcus faecalis; Enterococcus faecalis): 0.25 mg/L (≈ 0.142 µM); MIC (Enterococcus faecalis; Enterococcus faecalis, ATCC29212): 0.12 mg/L (≈ 0.0684 µM); MIC (Enterococcus faecalis; Enterococcus faecalis, VRE): 1 mg/L (≈ 0.57 µM); MIC (Enterococcus faecalis; Enterococcus faecalis, read-out: MIC (median)): 0.19 mg/L (≈ 0.108 µM); MIC (MSSA ATCC 29213): 0.063 mg/L (≈ 0.0359 µM); MIC:MBC (Streptococcus pneumoniae; S. pneumoniae PISP, MBC on one organism): 1; MIC (Streptococcus pneumoniae; S. pneumoniae PRSP, 1 isolate): 0.03 mg/L (≈ 0.0171 µM); MIC (Streptococcus pneumoniae; Streptococcus pneumoniae): 0.015 mg/L (≈ 0.00854 µM); MIC (Streptococcus pneumoniae; Streptococcus pneumoniae, ATCC49619): 0.03 mg/L (≈ 0.0171 µM); MIC (Streptococcus pneumoniae; Streptococcus pneumoniae, PRSP): 0.03 mg/L (≈ 0.0171 µM); MIC (Streptococcus pneumoniae; Streptococcus pneumoniae, read-out: MIC (median)): 0.02 mg/L (≈ 0.0114 µM); MIC (Clostridioides difficile; ATCCBAA1805, C. difficile ATCC BAA-1805, ribo 027): 0.12 mg/L (≈ 0.0684 µM); MIC (Clostridioides difficile; ATCCBAA1870, C. difficile ATCC BAA-1870, NAP1;ribo 027): 0.12 mg/L (≈ 0.0684 µM); MIC (Clostridioides difficile; C. difficile ATTC 700057, toxAB-): 0.12 mg/L (≈ 0.0684 µM); MIC (Clostridioides difficile; C. difficile NAP1;ribo 027, 1 isolate): 0.12 mg/L (≈ 0.0684 µM); MIC (Clostridioides difficile; C. difficile ribo 027, 1 isolate): 0.12 mg/L (≈ 0.0684 µM); MIC (Clostridioides difficile; C. difficile toxAB-, 1 isolate): 0.12 mg/L (≈ 0.0684 µM); MIC [3]: 0.06 mg/L (≈ 0.0342 µM); MIC ([3]; ATCC29970): 0.06 mg/L (≈ 0.0342 µM)
